Measurements published in patent publication US11739068B2, “Polymorphs of N-[(3-fluoro-4-methoxypyridin-2-yl)methyl]-3-(methoxymethyl)-1-({4-[(2-oxopyridin-1-yl)methyl]phenyl}methyl)pyrazole-4-carboxamide and salts thereof” (KALVISTA PHARMACEUTICALS LIMITED, priority 2016, dated 2023).
Each block holds one molecule with its values, some of them ahead of it.

Legend:
[1] = in vivo; cited from earlier work
[2] = Visual aqueous solubility; type: physicochemical; conditions: water, thermodynamic from solid
Method: Form 1 (10 mg) was weighed into a glass vial and water was added in 100 μL portions up to 3 mL then 1 mL portions thereafter. Solubility was assessed visually following a brief period of equilibration.
Form 18 (10 mg) was weighed into a glass vial and water was added in 100 μL portions up to 3 mL then 1 mL portions thereafter. Solubility was assessed visually following a brief period of equilibration.
Form 8 (10 mg) was weighed into a glass vial and water was added in 100 μL portions up to 3 mL then 1 mL portions thereafter. Solubility was assessed visually following a brief period of equilibration.
Form 15 (10 mg) was weighed into a glass vial and water was added in 100 μL portions up to 3 mL then 1 mL portions thereafter. Solubility was assessed visually following a brief period of equilibration.
Form 16 (10 mg) was weighed into a glass vial and water was added in 100 μL portions up to 3 mL then 1 mL portions thereafter. Solubility was assessed visually following a brief period of equilibration.

[3] = Gravimetric Vapour Sorption (GVS); type: physicochemical
Method: Gravimetric Vapour Sorption (GVS) data were collected using the following method: Approximately 10 mg of sample was placed into a wire-mesh vapour sorption balance pan and loaded into an ‘IgaSorp’ vapour sorption balance (Hiden Analytical Instruments). The sample was then dried by maintaining a 0% humidity environment until no further weight change was recorded. Subsequently, the sample was then subjected to a ramping profile from 0-90% RH at 10% RH increments, maintaining the sample at each step until equilibration had been attained (99% step completion). Upon reaching equilibration, the % RH within the apparatus was ramped to the next step and the equilibration procedure repeated. After completion of the sorption cycle, the sample was then dried using the same procedure. The weight change during the sorption/desorption cycles were then monitored, allowing for the hygroscopic nature of the sample to be determined.

[4] = Stability study of Form 1 (double polyethylene bags, HDPE bottle); type: physicochemical; conditions: for Change in the XRPD diffractogram on storage: after 1 month and 3 months
Method: Further evidence of the suitability of the crystalline forms of N-[(3-fluoro-4-methoxypyridin-2-yl)methyl]-3-(methoxymethyl)-1-({4-[(2-oxopyridin-1-yl)methyl]phenyl}methyl)pyrazole-4-carboxamide for pharmaceutical development is provided by the stability data disclosed herein. Two samples of Form 1 of N-[(3-fluoro-4-methoxypyridin-2-yl)methyl]-3-(methoxymethyl)-1-({4-[(2-oxopyridin-1-yl)methyl]phenyl}methyl)pyrazole-4-carboxamide were stored at 25° C./60% RH and 40° C./75% RH packed in double polyethylene bags and sealed in a HDPE bottle.
A sample of Form 1 was packed in double polyethylene bags and sealed in a HDPE bottle and stored at conditions of 25° C./60% RH. The sample was reanalysed after 1 month and 3 months by XRPD (using Method B). No change in the XRPD diffractogram was observed when the sample was stored at 25° C./60% RH after either 1 month or 3 months.
Further tests on the sample of Form 1 stored at 25° C./60% RH were carried out as described in the table below:
A second sample of Form 1 was packed in double polyethylene bags and sealed in a HDPE bottle and stored under accelerated stability conditions of 40° C./75% RH. The sample was reanalysed after 1 month and 3 months by XRPD (using Method B). No change in the XRPD diffractogram was observed when the sample was stored at 40° C./75% RH after either 1 month or 3 months.
Further tests on the sample of Form 1 stored at 40° C./75% RH were carried out as described in the table below: […]

[5] = Slurry studies; type: physicochemical; conditions: 90/10 IPA/water, ambient temperature, 72 hrs
Method: Form 1 (20 mg) was suspended in 90/10 IPA/water (200 μL or […]) and shaken at ambient temperature for 72 hrs. The supernatant was evaporated rather than filtered due to the small volume and the resulting solid was examined by XRPD (FIG. 6).
The supernatant was evaporated rather than filtered due to the small volume and the resulting solid was examined by XRPD (FIG. 28).
The supernatant was evaporated rather than filtered due to the small volume and the resulting solid was examined by XRPD (FIG. 34).
The supernatant was evaporated rather than filtered due to the small volume and the resulting solid was examined by XRPD (FIG. 40).

[6] = target: T1, Human KLK1 (Homo sapiens, UniProt P06870); experiment: Determination of the IC50 for KLK1; type: biochemical; conditions: 25° C., fluorogenic substrate H-DVal-Leu-Arg-AFC
T1 construct: purchased Callbiochem
T1 sequence (P06870 25-262): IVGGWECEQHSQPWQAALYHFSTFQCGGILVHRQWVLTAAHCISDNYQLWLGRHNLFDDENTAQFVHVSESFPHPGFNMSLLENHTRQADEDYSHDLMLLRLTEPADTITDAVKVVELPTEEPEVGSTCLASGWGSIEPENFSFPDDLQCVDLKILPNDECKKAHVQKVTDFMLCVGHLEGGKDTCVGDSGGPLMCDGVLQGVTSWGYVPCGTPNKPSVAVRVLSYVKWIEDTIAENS
Method: KLK1 inhibitory activity in vitro was determined using standard published methods (see e.g. Johansen et al., Int. J. Tiss. Reac. 1986, 8, 185; Shori et al., Biochem. Pharmacol., 1992, 43, 1209; Sturzebecher et al., Biol. Chem. Hoppe-Seyler, 1992, 373, 1025). Human KLK1 (Callbiochem) was incubated at 25° C. with the fluorogenic substrate H-DVal-Leu-Arg-AFC and various concentrations of the test compound. Residual enzyme activity (initial rate of reaction) was determined by measuring the change in […] at 410 nm and the IC50 value for the test compound was determined.

[7] = test system: LPS-induced disseminated intravascular coagulation; conditions: cited from earlier work
[8] = test system: blood; conditions: blood contacted with inhibitor; cited from earlier work
[9] = test system: intrinsic pathway of coagulation; conditions: in vitro; cited from earlier work
[10] = in vivo; cited from earlier work; remark: listed apart in the source

Molecule: C=Cc1cc(C(=O)Nc2ccc(C(=N)N)cc2)c(-c2ccc(C(=O)NCC3CC3)nc2C(=O)O)cc1OC [BCX4161]
Oral availability [1]: orally available

solubility [2]: < 500 µg/mL
%-Wt (dry basis) ([3]; adsorption, about 0 %-RH): 0.04722%
%-Wt (dry basis) ([3]; adsorption, about 10 %-RH): 0.23%
%-Wt (dry basis) ([3]; adsorption, about 20 %-RH): 0.3541%
%-Wt (dry basis) ([3]; adsorption, about 30 %-RH): 0.7126%
%-Wt (dry basis) ([3]; adsorption, about 40 %-RH): 0.825%
%-Wt (dry basis) ([3]; adsorption, about 50 %-RH): 1.207%
%-Wt (dry basis) ([3]; adsorption, about 60 %-RH): 1.699%
%-Wt (dry basis) ([3]; adsorption, about 70 %-RH): 1.912%
%-Wt (dry basis) ([3]; adsorption, about 80 %-RH): 2.186%
%-Wt (dry basis) ([3]; adsorption, about 90 %-RH): 3.226%
%-Wt (dry basis) ([3]; desorption, about 0 %-RH): 0.000368%
%-Wt (dry basis) ([3]; desorption, about 5 %-RH): 0.1269%
%-Wt (dry basis) ([3]; desorption, about 15 %-RH): 0.5017%
%-Wt (dry basis) ([3]; desorption, about 25 %-RH): 0.7008%
%-Wt (dry basis) ([3]; desorption, about 35 %-RH): 1.017%
%-Wt (dry basis) ([3]; desorption, about 45 %-RH): 1.525%
%-Wt (dry basis) ([3]; desorption, about 55 %-RH): 1.685%
%-Wt (dry basis) ([3]; desorption, about 65 %-RH): 1.865%
%-Wt (dry basis) ([3]; desorption, about 75 %-RH): 2.116%
%-Wt (dry basis) ([3]; desorption, about 85 %-RH): 2.547%
Appearance ([4]; 25° C./60% RH, 1 month): Off-white
Assay by HPLC (on an anhydrous and solvent free basis) ([4]; 25° C./60% RH, 1 month): 99.5 % w/w
DSC Tonset ([4]; 25° C./60% RH, 1 month): 151.1 °C
DSC Tpeak ([4]; 25° C./60% RH, 1 month): 152.4 °C
HPLC assay (on an “as is” basis) ([4]; 25° C./60% RH, 1 month): 99.4 % w/w
Polymorph by XRPD ([4]; 25° C./60% RH, 1 month): Conforms to
Purity by HPLC ([4]; 25° C./60% RH, 1 month): 99.62 area %
Total impurities ([4]; 25° C./60% RH, 1 month): 0.38 area %
Water by Karl Fischer analysis ([4]; 25° C./60% RH, 1 month): <0.1 % w/w
Appearance ([4]; 25° C./60% RH, 3 months): Off-white
Assay by HPLC (on an anhydrous and solvent free basis) ([4]; 25° C./60% RH, 3 months): 99.6 % w/w
DSC Tonset ([4]; 25° C./60% RH, 3 months): 150.8 °C
DSC Tpeak ([4]; 25° C./60% RH, 3 months): 152.2 °C
HPLC assay (on an “as is” basis) ([4]; 25° C./60% RH, 3 months): 99.5 % w/w
Polymorph by XRPD ([4]; 25° C./60% RH, 3 months): Conforms to
Purity by HPLC ([4]; 25° C./60% RH, 3 months): 99.70 area %
Total impurities ([4]; 25° C./60% RH, 3 months): 0.30 area %
Water by Karl Fischer analysis ([4]; 25° C./60% RH, 3 months): <0.1 % w/w
Appearance ([4]; 25° C./60% RH, Initial): Off-white
Assay by HPLC (on an anhydrous and solvent free basis) ([4]; 25° C./60% RH, Initial): 101.0 % w/w
DSC Tonset ([4]; 25° C./60% RH, Initial): 151.3 °C
DSC Tpeak ([4]; 25° C./60% RH, Initial): 152.9 °C
HPLC assay (on an “as is” basis) ([4]; 25° C./60% RH, Initial): 100.9 % w/w
Polymorph by XRPD ([4]; 25° C./60% RH, Initial): Conforms to
Purity by HPLC ([4]; 25° C./60% RH, Initial): 99.70 area %
Total impurities ([4]; 25° C./60% RH, Initial): 0.30 area %
Water by Karl Fischer analysis ([4]; 25° C./60% RH, Initial): <0.1 % w/w
Change in the XRPD diffractogram on storage ([4]; 25° C./60% RH): no change
Appearance ([4]; 40° C./75% RH, 1 month): Off-white
Assay by HPLC (on an anhydrous and solvent free basis) ([4]; 40° C./75% RH, 1 month): 99.5 % w/w
DSC Tonset ([4]; 40° C./75% RH, 1 month): 151.1 °C
DSC Tpeak ([4]; 40° C./75% RH, 1 month): 152.3 °C
HPLC assay (on an “as is” basis) ([4]; 40° C./75% RH, 1 month): 99.4 % w/w
Polymorph by XRPD ([4]; 40° C./75% RH, 1 month): Conforms to
Purity by HPLC ([4]; 40° C./75% RH, 1 month): 99.57 area %
Total impurities ([4]; 40° C./75% RH, 1 month): 0.43 area %
Water by Karl Fischer analysis ([4]; 40° C./75% RH, 1 month): <0.1 % w/w
Appearance ([4]; 40° C./75% RH, 3 months): Off-white
Assay by HPLC (on an anhydrous and solvent free basis) ([4]; 40° C./75% RH, 3 months): 100.0 % w/w
DSC Tonset ([4]; 40° C./75% RH, 3 months): 150.6 °C
DSC Tpeak ([4]; 40° C./75% RH, 3 months): 152.5 °C
HPLC assay (on an “as is” basis) ([4]; 40° C./75% RH, 3 months): 99.9 % w/w
Polymorph by XRPD ([4]; 40° C./75% RH, 3 months): Conforms to
Purity by HPLC ([4]; 40° C./75% RH, 3 months): 99.71 area %
Total impurities ([4]; 40° C./75% RH, 3 months): 0.29 area %
Water by Karl Fischer analysis ([4]; 40° C./75% RH, 3 months): 0.1 % w/w
Appearance ([4]; 40° C./75% RH, Initial): Off-white
Assay by HPLC (on an anhydrous and solvent free basis) ([4]; 40° C./75% RH, Initial): 101.0 % w/w
DSC Tonset ([4]; 40° C./75% RH, Initial): 151.3 °C
DSC Tpeak ([4]; 40° C./75% RH, Initial): 152.9 °C
HPLC assay (on an “as is” basis) ([4]; 40° C./75% RH, Initial): 100.9 % w/w
Polymorph by XRPD ([4]; 40° C./75% RH, Initial): Conforms to
Purity by HPLC ([4]; 40° C./75% RH, Initial): 99.70 area %
Total impurities ([4]; 40° C./75% RH, Initial): 0.30 area %
Water by Karl Fischer analysis ([4]; 40° C./75% RH, Initial): <0.1 % w/w
Change in the XRPD diffractogram on storage ([4]; 40° C./75% RH): no change
XRPD of solid after slurry versus starting form [5]: different to that of FIG. 2a
Molecule: COCc1nn(Cc2ccc(Cn3ccccc3=O)cc2)cc1C(=O)NCc1nccc(OC)c1F [Form 1, N-[(3-fluoro-4-methoxypyridin-2-yl)methyl]-3-(methoxymethyl)-1-({4-[(2-oxopyridin-1-yl)methyl]phenyl}methyl)pyrazole-4-carboxamide]
Increase in water content by GVS (hygroscopicity, in words) ([3]; up to 70% relative humidity): only a relatively gradual increase in water content

IC50 [6]: > 40 µM
Molecule: COCc1nn(Cc2ccc(Cn3ccccc3=O)cc2)cc1C(=O)NCc1nccc(OC)c1F [N-[(3-fluoro-4-methoxypyridin-2-yl)methyl]-3-(methoxymethyl)-1-({4-[(2-oxopyridin-1-yl)methyl]phenyl}methyl)pyrazole-4-carboxamide]

Molecule: Cl.NCC1CCC(C(=O)N[C@@H](Cc2ccccc2)C(=O)Nc2ccc(CC(=O)O)cc2)CC1 (stereo partly shown) [PKSI-527]
Effect on platelet count, fibrinogen level and FDP level [7]: significantly suppressed the decrease in platelet count and fibrinogen level as well as the increase in FDP level

Molecule: Ecallantide
Activated clotting time (ACT) [8]: increase in activated clotting time (ACT)
Contact activated induced coagulation [9]: delay contact activated induced coagulation
Anaphylactic reactions [10]: risks of anaphylactic reactions
